Consider five substances from paper PMC3600310, “Phage Display Screening for Tumor Necrosis Factor-α-Binding Peptides: Detection of Inflammation in a Mouse Model of Hepatitis” (International Journal of Peptides, 2013).

Experiment [1] in a line: ELISA interaction of biotinylated peptides with PFBB coated plate (no target). It counts as binding. As to conditions: free biotinylated peptide; plate coated with protein-free blocking buffer only; Kd* values could not be estimated. How it is done:
The affinity of the selected peptides was evaluated by ELISA as for the phage clones (see Section 2.1.3). The target was immobilized overnight on a 96-well plate at 4°C before a 2-hour incubation with a protein-free blocking buffer solution (PFBB, Pierce, Aalst, Belgium) and then with a range of peptide dilutions: 10^‒3 M to 10^‒6 M. The target-bound biotinylated peptides were detected using ABC (Avidin Biotin Complex) and ABTS solutions as described above. The dissociation constant was estimated from the inflection point of the curve.

A further experiment deals with TNF-α. Kind of experiment: TNF-α detection by biotinylated 2C and 2L peptides in liver histological sections. Details: species or system mouse. As to conditions: biotinylated peptide 20 μM overnight, ABC complex/DAB, ex vivo. How it is done: Adult mice (n = 6) received a single i.p. injection of 20 mg/Kg of ConA [21], a lymphocyte T activator producing inflammation in mice liver.
Mice were sacrificed 2 hours after intravenous injection of ConA, and their livers were fixed for 24 h in 4% paraformaldehyde. After fixation, the liver was dehydrated by several alcohol and butanol soakings and the organ was subsequently embedded in paraffin according to standard procedures. Sections of 4-micrometer thickness were cut for histological tests.
TNF-α detection by the phage display-selected 2C and 2L peptides was carried out with the same protocol as for anti-TNF-α polyclonal antibody (see Section 2.4.2). Briefly, liver sections were incubated overnight with the biotinylated peptides (20 μM). Reactive sites were detected with the ABC complex and DAB staining.

For experiment [2], the system named is human TNF-α. Kind of experiment: ELISA competition of phage clones with an anti-TNF-α antibody. The class given is binding. As to conditions: for IC50: antibody concentration that inhibits by 50% the phage-TNF-α interaction, antibody 1.3 × 10^−9 to 6.66 × 10^−7 M pre-incubated 30 min, then phage at Kd* concentration 1 h, high IC50 = strong phage binding, read-out: IC50 of the anti-TNF-α antibody against the phage clone; for IC50 Ab anti-TNF-α/Kd clone ratio: phage clones, IC50 of the anti-TNF-α antibody divided by Kd* of the clone. How it is done: (b) Competition Experiments with an Anti-TNF-α Antibody. Competition experiments were performed in the same manner as the K d* experiments except that clones were set in competition with an anti-TNF-α antibody (R&D Systems Inc., Abington, UK) in dilutions ranging from 1.3 × 10^−9 to 6.66 × 10^−7 M in a PBS solution. Plates were first incubated for 30 min with 50 μL/well of antibody dilutions before a one-hour incubation with 50 μL of phage solutions at the K d* concentration. The IC50 of the anti-TNF-α antibody is the antibody concentration required to inhibit by 50% the interaction between phages and TNF-α.
The objective of this test is to set up a competition between every phage clone and another ligand of the target to calculate an inhibition constant value (IC50).

In experiment [3] the target is human TNF-α. As to the kind of experiment: ELISA estimation of apparent dissociation constant (Kd*) between phage clones and TNF-α. It counts as binding. As to conditions: phage clones; ELISA Kd* on BSA divided by Kd* on TNF-α. How it is done: (a) Estimation of the Apparent Dissociation Constant (K d*) between the Phage Clones and TNF-α. The K d* of phage clones against their target was assessed by the ELISA (enzyme-linked immunosorbent assay) method, using a range of phage dilutions incubated with the specific target.
ELISA plates were treated overnight with the target solution (human TNF-α, 0.01 mg/mL, at 4°C). The next day, the target solution was replaced by the blocking solution as described above. Plates were then incubated for 2 h at 37°C with serial phage dilutions (6.5 × 10^−11 – 3.3 × 10^−8 M) prepared in PBS containing 0.3% Tween 20. After rinsing the plate 6 times with the same buffer, phages were detected with a peroxidase-conjugated anti-M13 monoclonal antibody (Amersham Pharmacia Biotech Benelux, Roosendaal, The Netherlands) diluted 1 : 5000 in the blocking buffer. The peroxidase detection was performed using 2,2′-azino-bis[3-ethylbenztiazoline-6-sulfonic acid, diammonium salt] (ABTS, Sigma-Aldrich; 22 mg in 100 mL of 50 mM sodium citrate, pH 4.0) supplemented with 0.05% H2O2. After 30–60 min of incubation at room temperature, the OD405 values were measured on a microplate reader (Stat-Fax-2100, Awareness Technology Inc., Fisher Bioblock Scientific, Tournai, Belgium) for K d* evaluation.

On to “(C-)PATLTSL(-C) (disulfide) [Clone 2C, biotinylated cyclic form of the PATLTSL peptide (peptide 2)]”, for which the “Interaction with the PFBB coated plate” value in experiment [1] is on record as “only a weak interaction”. The “Staining of healthy liver sections” value with TNF-α is “did not show such a staining”.
A word on the IC50: it is the concentration that gives 50% inhibition. Regarding “C-GSKTQAP-C (disulfide) [Clone C2-R3, phage clone 2 from biopanning round 3 displaying cyclic heptapeptide C-GSKTQAP-C]”, in the experiment on human TNF-α [2], the IC50 worked out at 112 nM and the “IC50 Ab anti-TNF-α/Kd clone ratio” value was found to be 1087. Also, the “Kd BSA/Kd TNF-α ratio” value on human TNF-α [3] is given as 6 × 10^6.
Consider “C-NNPLKSL-C (disulfide) [Clone C47-R4, phage clone 47 from round 4 displaying cyclic heptapeptide C-NNPLKSL-C]”, for which, at human TNF-α [3], the “Kd BSA/Kd TNF-α ratio” value is recorded as 0.02.
As to “C-PATLTSL-C (disulfide) [Clone C30-R3, phage clone 30 from round 3 displaying cyclic heptapeptide C-PATLTSL-C]”, in the experiment on human TNF-α [2], the IC50 is 127 nM and the “IC50 Ab anti-TNF-α/Kd clone ratio” value turned out to be 6195. Further, the “Kd BSA/Kd TNF-α ratio” value at human TNF-α [3] is on record as 4.2 × 10^6.
“PATLTSL [Clone 2L, biotinylated linear form of the PATLTSL peptide (peptide 2)]”: in experiment [1], the “Interaction with the PFBB coated plate” value is reported as “only a weak interaction”. The “Staining of liver sections of ConA-treated mice” value with TNF-α (C57BL/6 mice, ConA 20 mg/Kg, sacrificed 2 hours after injection) is “did not yield such a result”.
